# Where “and” joins values, the source holds several entries; their conditions need not be identical. Equal values may be shown once.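 1) Cells in 96-well plates. 2) Compound, 48 h, 5 concentrations. 3) Linear interpolation between surrounding doses. 4) Unreached endpoint = highest concentration. GI50 is the concentration that inhibits growth by half. The concentration for full growth arrest is given as TGI.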
# Assays:
# Assay in all cases: NCI-60 cell line screen, 48 h
# NCI-H522 lung = system: NCI-H522 lung
# RXF 393 renal = system: RXF 393 renal
# ACHN renal = system: ACHN renal
# A549 NSCLC = system: A549 NSCLC
# UACC-62 melanoma = system: UACC-62 melanoma
# M14 melanoma = system: M14 melanoma
# SK-MEL-28 melanoma = system: SK-MEL-28 melanoma
# OVCAR-5 ovarian = system: OVCAR-5 ovarian
# SK-MEL-5 melanoma = system: SK-MEL-5 melanoma
# NCI-H23 lung = system: NCI-H23 lung
SMILES,TGI (NCI-H522 lung) [µM],TGI (RXF 393 renal) [µM],TGI (ACHN renal),TGI (A549 NSCLC),TGI (UACC-62 melanoma),TGI (M14 melanoma),TGI (SK-MEL-28 melanoma),TGI (OVCAR-5 ovarian),TGI (SK-MEL-5 melanoma) [µM],TGI (NCI-H23 lung) [µM],GI50 (SK-MEL-28 melanoma) [µM],GI50 (NCI-H522 lung) [µM],GI50 (RXF 393 renal) [µM],GI50 (ACHN renal) [µM],GI50 (A549 NSCLC) [µM],GI50 (UACC-62 melanoma) [µM],GI50 (M14 melanoma) [µM],GI50 (OVCAR-5 ovarian) [µM],GI50 (SK-MEL-5 melanoma) [µM]
CCOC(=O)NNC1(SC)NC(=O)c2c(cc(Cl)oc2=O)O1 (centres undefined),6.26,6.93,4.79 µM,21.1 µM,25.1 µM,11.7 µM,10.5 µM,25.2 µM,> 45.5,13.1,–,–,–,–,–,–,–,–,–
CC1(C)SC2C(NC(=O)Cc3ccccc3)C(=O)N2C1C(=O)O (centres undefined),> 100,> 100,> 100 µM,> 100 µM,> 100 µM,> 100 µM,> 100 µM,> 100 µM,> 100,> 100,–,–,–,–,–,–,–,–,–
COc1cccc2c1C(=O)c1ccc3cc(CO)cc(O)c3c1C2=O,5.89,7.09,3.7 µM,2.76 µM,1 µM,1.68 µM,5.61 µM,3.92 µM,0.508,1.18,–,–,–,–,–,–,–,–,–
CSCCCNC(=O)c1csc([C@@H](CSC)NC(=O)CCNC(=O)[C@@H](NC(=O)OCC(Br)(Br)Br)C(C)O)n1 (some centres undefined),> 100,> 100,> 100 µM,> 100 µM,> 100 µM,> 100 µM,> 100 µM,> 100 µM,> 100,> 100,–,–,–,–,–,–,–,–,–
CC1C=C(NCC2(CO)CCC2)NC(N)=N1 (centres undefined),> 100,> 100,> 100 µM,> 100 µM,> 100 µM,> 100 µM,> 100 µM,> 100 µM,> 100,> 100,–,–,–,–,–,–,–,–,–
Cc1ccc(N2C(=O)CC(=O)N(NC(=O)C(C)Oc3ccccc3C)C2=S)cc1 (centres undefined),> 100,> 100,> 100 µM,> 100 µM,> 100 µM,> 100 µM,> 100 µM,> 100 µM,> 100,> 100,–,–,–,–,–,–,–,–,–
COc1ccc(C2c3cc4c(cc3OC(N3CCOCC3)C2C)OCO4)c(OC)c1 (centres undefined),8.95,10.7,93.8 µM,58 µM,20.9 µM,21.2 µM,29.8 µM,73.9 µM,11.5,> 67.9,–,–,–,–,–,–,–,–,–
O=S(=O)(O)Nc1ccc(-c2nc3ccccc3s2)cc1Cl,> 100,> 100,> 100 µM,> 100 µM,> 100 µM,> 100 µM,> 100 µM,> 100 µM,> 100,> 100,–,–,–,–,–,–,–,–,–
Cc1ccc(-c2c(C#N)c(S)n(NS(=O)(=O)c3ccccc3)c(=O)c2C#N)cc1,52.3,> 100,82 µM,> 100 µM,> 100 µM,> 100 µM,> 100 µM,> 100 µM,69.4,> 100,–,–,–,–,–,–,–,–,–
CCO[C@H]1C[C@@H](c2ccccc2)[C@]2(C)C[C@H](C(=O)OC)ON2O1,> 100,> 100,> 100 µM,> 100 µM,> 100 µM,> 100 µM,> 100 µM,> 100 µM,> 100,> 100,–,–,–,–,–,–,–,–,–
O=[N+]([O-])c1cccc2nc3ccccc3c(NCCNCCO)c12,0.00272,0.0205,0.0422 µM and 0.0311 µM,0.145 µM and 0.144 µM,0.0315 µM and 0.0174 µM,0.0236 µM and 0.0101 µM,0.177 µM and 0.202 µM,0.088 µM and 0.0672 µM,0.00391,0.00448,0.0239,–,–,–,–,–,–,–,–
Cc1ccc(NNc2cc(=O)[nH]c(=O)[nH]2)cc1Cl,32.8,30.4,21.4 µM,> 100 µM,> 100 µM,26.9 µM,31.7 µM,> 100 µM,> 100,31.1,–,–,–,–,–,–,–,–,–
O=C(/C(Cl)=C/c1ccccc1)c1ccccc1,3.76,8.16,4.81 µM,34.1 µM,22.9 µM,4.98 µM,6.06 µM,19.8 µM,12.1,26,–,–,–,–,–,–,–,–,–
COc1cc2cnc3c(c2cc1OC)Cc1cc2c(cc1-3)OCO2,–,> 92.5,19.4 µM,> 54.5 µM,35.1 µM,> 100 µM,> 100 µM,77.9 µM,5.39,24.6,1.86,< 0.01,0.0322,< 0.0143,< 0.0153,< 0.01,< 0.0113,35.5,< 0.01
O=C(NCCCCNCCCNC(=O)C(F)(F)F)C(F)(F)F,> 100,> 100,> 100 µM,> 100 µM,> 100 µM,> 100 µM,> 100 µM,> 100 µM,> 100,> 100,–,–,–,–,–,–,–,–,–
COC(=O)c1ccc(NCC2=CC(=O)c3ccccc3C2=O)cc1,42.3,> 61.7,42.4 µM,96.7 µM,27.6 µM,37.1 µM,33.8 µM,49.5 µM,27.6,38.2,–,–,–,–,–,–,–,–,–
Cc1cc2c(cc1Cl)Sc1nnc(C)n1S2(=O)=O,23.4,47.4,27.7 µM,97.2 µM,30.6 µM,30.8 µM,31.5 µM,97.7 µM,27,30.1,–,–,–,–,–,–,–,–,–

# Source: PubChem BioAssay (NCI)
